Each structure is given as a SMILES string.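 Following 48 hours of exposure in 96-well plates, responses at five concentrations were used to interpolate endpoints linearly. TGI: concentration producing complete growth inhibition.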

Test systems include K-562 leukemia; CAKI-1 renal; HOP-62 NSCLC; NCI-H23 lung; IGROV1 ovarian; MCF7 breast; COLO 205 colon; SF-268 CNS; HOP-92 NSCLC; SF-295 CNS; MOLT-4 leukemia; SF-539 CNS; MALME-3M melanoma; SNB-19 CNS; NCI/ADR-RES ovarian; NCI-H460 lung; TK-10 renal; T-47D breast.
Common to all, as to assay: growth of human tumour cells (NCI), 48 h

Regarding `CN(NC(=O)/C(=C\c1ccco1)NC(=O)c1ccccc1)c1cn[nH]c(=O)c1Cl`, the TGI with K-562 leukemia, with CAKI-1 renal, in the assay on HOP-62 NSCLC, in the assay on NCI-H23 lung, in the assay on IGROV1 ovarian and in the assay on MCF7 breast was more than 100 µM throughout. The TGI was more than 100 µM in the assay on COLO 205 colon; more than 100 µM in the assay with SF-268 CNS; more than 100 µM with HOP-92 NSCLC; more than 100 µM with SF-295 CNS; 93.3 µM in the assay with MOLT-4 leukemia; 62 µM in the assay on SF-539 CNS. Also, the TGI in the assay with MALME-3M melanoma, in the assay with SNB-19 CNS, with NCI/ADR-RES ovarian, with NCI-H460 lung and with TK-10 renal was more than 100 µM throughout.

For the compound `COC(=O)c1ccccc1NC(=O)C(=O)CC(=O)CC(c1ccccc1)c1c(O)c2ccccc2oc1=O` (stereo unspecified), the TGI with CAKI-1 renal, in the assay on HOP-62 NSCLC, in the assay on NCI-H23 lung, with IGROV1 ovarian, in the assay on COLO 205 colon and with SF-268 CNS was more than 100 µM each time. The TGI in the assay with SF-295 CNS, with MOLT-4 leukemia, with SF-539 CNS, in the assay with MALME-3M melanoma, with SNB-19 CNS and in the assay on NCI-H460 lung was more than 100 µM throughout. Also, in the assay with TK-10 renal, the TGI was more than 100 µM.

On to `COc1ccc(CCNC(=O)CCc2ccccc2CO)cc1OC`, for which the TGI with K-562 leukemia, with CAKI-1 renal, with HOP-62 NSCLC, with NCI-H23 lung, in the assay on IGROV1 ovarian and with MCF7 breast was more than 100 µM in each case. For the same compound, the TGI in the assay on COLO 205 colon, in the assay on SF-268 CNS, in the assay on HOP-92 NSCLC, in the assay on SF-295 CNS, in the assay on MOLT-4 leukemia and in the assay with SF-539 CNS was more than 100 µM throughout. The TGI in the assay with SNB-19 CNS, with NCI/ADR-RES ovarian, with NCI-H460 lung, with T-47D breast and in the assay with TK-10 renal was more than 100 µM each time.

In the case of `S=C1N=C(Cl)/C(=C\c2ccco2)N1`, the TGI with K-562 leukemia, in the assay on CAKI-1 renal, in the assay with HOP-62 NSCLC, in the assay with NCI-H23 lung, in the assay with IGROV1 ovarian and in the assay on MCF7 breast was more than 100 µM each time. Also, the TGI with COLO 205 colon, in the assay with SF-268 CNS, in the assay on HOP-92 NSCLC, in the assay with SF-295 CNS, in the assay with SF-539 CNS and in the assay with MALME-3M melanoma was more than 100 µM in each case. Further, the TGI in the assay on SNB-19 CNS, in the assay on NCI/ADR-RES ovarian, in the assay on NCI-H460 lung, in the assay on T-47D breast and in the assay on TK-10 renal was more than 100 µM in each case.

As to `C[C@@H]1OC(=O)C[C@H]2CC(=O)N(CCC3CN(S(=O)(=O)C(F)(F)F)c4ccccc43)C[C@@H]21` (stereo partly specified), the TGI with K-562 leukemia, in the assay with CAKI-1 renal, with HOP-62 NSCLC, in the assay with NCI-H23 lung, in the assay with IGROV1 ovarian and in the assay with MCF7 breast was more than 100 µM each time. In addition, the TGI with COLO 205 colon, in the assay with HOP-92 NSCLC, in the assay on SF-295 CNS, in the assay with MOLT-4 leukemia, in the assay with MALME-3M melanoma and with SNB-19 CNS was more than 100 µM in each case. For the same compound, the TGI in the assay with NCI/ADR-RES ovarian and with NCI-H460 lung was more than 100 µM throughout.

In the case of `Cc1cc(N(CCC#N)CCC#N)ccc1N=Nc1cccc(Cl)c1`, the TGI in the assay on K-562 leukemia, in the assay with CAKI-1 renal, in the assay with HOP-62 NSCLC, in the assay on NCI-H23 lung, in the assay on COLO 205 colon and in the assay with HOP-92 NSCLC was more than 100 µM in each case. Also, the TGI in the assay on SF-295 CNS, in the assay on SF-539 CNS, in the assay with MALME-3M melanoma, in the assay on SNB-19 CNS, in the assay on NCI-H460 lung and with TK-10 renal was more than 100 µM in each case.

With `Cn1c2ccccc2c2nc3ccccc3c(Cl)c21`, the TGI in the assay on K-562 leukemia, with CAKI-1 renal, with HOP-62 NSCLC, in the assay with NCI-H23 lung, with IGROV1 ovarian and in the assay with MCF7 breast was more than 100 µM throughout. Moreover, the TGI in the assay with COLO 205 colon, with SF-268 CNS, with SF-295 CNS, in the assay with MOLT-4 leukemia, with SF-539 CNS and in the assay on MALME-3M melanoma was more than 100 µM in each case. The TGI with SNB-19 CNS, in the assay with NCI/ADR-RES ovarian, in the assay on NCI-H460 lung and with TK-10 renal was more than 100 µM in each case.

For the compound `COC(=O)C1N=CSCC1(C)O` (stereo unspecified), the TGI in the assay with K-562 leukemia, in the assay with CAKI-1 renal, in the assay with HOP-62 NSCLC, with NCI-H23 lung, with IGROV1 ovarian and in the assay with COLO 205 colon was more than 100 µM throughout. In addition, the TGI in the assay with SF-268 CNS, with HOP-92 NSCLC, with SF-295 CNS, in the assay with MOLT-4 leukemia, in the assay on SF-539 CNS and with MALME-3M melanoma was more than 100 µM in each case. For the same compound, the TGI with SNB-19 CNS, with NCI-H460 lung and in the assay on TK-10 renal was more than 100 µM in each case.

Source of the values: PubChem BioAssay (NCI).
